Data reported in ChEMBL document CHEMBL4414655, “Position Effect of Fatty Acid Modification on the Cytotoxicity and Antimetastasis Potential of the Cytotoxic Peptide Lycosin-I” (J Med Chem, 2019).
Active and inactive are the calls of the source. The calls are words filed in the database; no cut-off is given here. Residues, ends and D or L forms follow the SMILES beside them. *: point of attachment. Lauroyl = CCCCCCCCCCCC(=O)*

Key:
HEK-293T = experiment: Cytotoxicity in human HEK293T cells assessed as reduction in cell viability incubated for 24 hrs by CCK8 assay; format: cell-based; conditions: human, hek-293t
Homo sapiens = organism: Homo sapiens; experiment: Induction of cell membrane disruption in human erythrocytes cells assessed as induction of hemolysis at 0.098 to 50 uM incubated for 1 hr by fluorescence based assay relative to control; format: cell membranes
A549 [1] = experiment: Cytotoxicity in human A549 cells assessed as reduction in cell viability by trypan blue staining method; format: functional, cell-based
A549 [2] = experiment: Potency index, ratio of IC50 for lycosin-I to IC50 for test compound for cytotoxicity in human A549 cells assessed as reduction in cell viability at 0.78 to 50 uM incubated for 24 hrs by CCK8 assay; format: functional
B16-F10 = experiment: Cytotoxicity in mouse B16/F10 cells assessed as reduction in cell viability incubated for 24 hrs by CCK8 assay; format: functional, cell-based; conditions: B16-F10, 24 h
A549 [3] = experiment: Cytotoxicity in human A549 cells assessed as reduction in cell viability incubated for 24 hrs by CCK8 assay; format: functional, cell-based; conditions: A549, 24 h
A549 [4] = experiment: Induction of cell membrane disruption in human A549 cells assessed as LDH release at 3.25 uM incubated for 30 mins by fluorescence based assay relative to control

Row | SMILES | Activity (HEK-293T) | Activity (Homo sapiens) | Activity (A549 [1]) | Ratio IC50 (A549 [2]) | IC50 (B16-F10) [nM] | IC50 (A549 [3]) [nM] | Activity (A549 [4]) [%]
1 | CCCCCCCCCCCC(=O)NCCCC[C@H](N)C(=O)NCC(=O)N[C@@H](Cc1c[nH]c2ccccc12)C(=O)N[C@@H](Cc1ccccc1)C(=O)N[C@@H](CCCCN)C(=O)N[C@@H](C)C(=O)N[C@@H](CCSC)C(=O)N[C@@H](CCCCN)C(=O)N[C@@H](CO)C(=O)N[C@H](C(=O)N[C@@H](C)C(=O)N[C@@H](CCCCN)C(=O)N[C@@H](Cc1ccccc1)C(=O)N[C@H](C(=O)N[C@@H](C)C(=O)N[C@@H](CCCCN)C(=O)N[C@@H](CCC(=O)O)C(=O)N[C@@H](CCCCN)C(=O)N[C@@H](CC(C)C)C(=O)N[C@@H](CCCCN)C(=O)N[C@@H](CCC(=O)O)C(=O)N[C@@H](Cc1cnc[nH]1)C(=O)N[C@@H](CC(C)C)C(=O)O)[C@@H](C)CC)[C@@H](C)CC (H-K(Lauroyl)GWFKAMKSIAKFIAKEKLKEHL-OH) | Toxic | Active | Active | 4 - 15 | 2000 | 3100 | 51.3
2 | CCCCCCCCCCCC(=O)NCCCC[C@H](NC(=O)[C@H](Cc1ccccc1)NC(=O)[C@H](Cc1c[nH]c2ccccc12)NC(=O)CNC(=O)[C@@H](N)CCCCN)C(=O)N[C@@H](C)C(=O)N[C@@H](CCSC)C(=O)N[C@@H](CCCCN)C(=O)N[C@@H](CO)C(=O)N[C@H](C(=O)N[C@@H](C)C(=O)N[C@@H](CCCCN)C(=O)N[C@@H](Cc1ccccc1)C(=O)N[C@H](C(=O)N[C@@H](C)C(=O)N[C@@H](CCCCN)C(=O)N[C@@H](CCC(=O)O)C(=O)N[C@@H](CCCCN)C(=O)N[C@@H](CC(C)C)C(=O)N[C@@H](CCCCN)C(=O)N[C@@H](CCC(=O)O)C(=O)N[C@@H](Cc1cnc[nH]1)C(=O)N[C@@H](CC(C)C)C(=O)O)[C@@H](C)CC)[C@@H](C)CC (H-KGWFK(Lauroyl)AMKSIAKFIAKEKLKEHL-OH) | Toxic | Active | Active | 4 - 15 | 2000 | 7700 | 23.1
3 | CCCCCCCCCCCC(=O)NCCCC[C@H](NC(=O)[C@H](CCSC)NC(=O)[C@H](C)NC(=O)[C@H](CCCCN)NC(=O)[C@H](Cc1ccccc1)NC(=O)[C@H](Cc1c[nH]c2ccccc12)NC(=O)CNC(=O)[C@@H](N)CCCCN)C(=O)N[C@@H](CO)C(=O)N[C@H](C(=O)N[C@@H](C)C(=O)N[C@@H](CCCCN)C(=O)N[C@@H](Cc1ccccc1)C(=O)N[C@H](C(=O)N[C@@H](C)C(=O)N[C@@H](CCCCN)C(=O)N[C@@H](CCC(=O)O)C(=O)N[C@@H](CCCCN)C(=O)N[C@@H](CC(C)C)C(=O)N[C@@H](CCCCN)C(=O)N[C@@H](CCC(=O)O)C(=O)N[C@@H](Cc1cnc[nH]1)C(=O)N[C@@H](CC(C)C)C(=O)O)[C@@H](C)CC)[C@@H](C)CC (H-KGWFKAMK(Lauroyl)SIAKFIAKEKLKEHL-OH) | Toxic | Active | Active | 4 - 15 | 2000 | 7300 | 25.7
4 | CCCCCCCCCCCC(=O)NCCCC[C@H](NC(=O)[C@H](C)NC(=O)[C@@H](NC(=O)[C@H](CO)NC(=O)[C@H](CCCCN)NC(=O)[C@H](CCSC)NC(=O)[C@H](C)NC(=O)[C@H](CCCCN)NC(=O)[C@H](Cc1ccccc1)NC(=O)[C@H](Cc1c[nH]c2ccccc12)NC(=O)CNC(=O)[C@@H](N)CCCCN)[C@@H](C)CC)C(=O)N[C@@H](Cc1ccccc1)C(=O)N[C@H](C(=O)N[C@@H](C)C(=O)N[C@@H](CCCCN)C(=O)N[C@@H](CCC(=O)O)C(=O)N[C@@H](CCCCN)C(=O)N[C@@H](CC(C)C)C(=O)N[C@@H](CCCCN)C(=O)N[C@@H](CCC(=O)O)C(=O)N[C@@H](Cc1cnc[nH]1)C(=O)N[C@@H](CC(C)C)C(=O)O)[C@@H](C)CC (H-KGWFKAMKSIAK(Lauroyl)FIAKEKLKEHL-OH) | Toxic | Active | Active | 4 - 15 | 2000 | 4900 | 38.5
5 | CCCCCCCCCCCC(=O)NCCCC[C@H](NC(=O)[C@H](C)NC(=O)[C@@H](NC(=O)[C@H](Cc1ccccc1)NC(=O)[C@H](CCCCN)NC(=O)[C@H](C)NC(=O)[C@@H](NC(=O)[C@H](CO)NC(=O)[C@H](CCCCN)NC(=O)[C@H](CCSC)NC(=O)[C@H](C)NC(=O)[C@H](CCCCN)NC(=O)[C@H](Cc1ccccc1)NC(=O)[C@H](Cc1c[nH]c2ccccc12)NC(=O)CNC(=O)[C@@H](N)CCCCN)[C@@H](C)CC)[C@@H](C)CC)C(=O)N[C@@H](CCC(=O)O)C(=O)N[C@@H](CCCCN)C(=O)N[C@@H](CC(C)C)C(=O)N[C@@H](CCCCN)C(=O)N[C@@H](CCC(=O)O)C(=O)N[C@@H](Cc1cnc[nH]1)C(=O)N[C@@H](CC(C)C)C(=O)O (H-KGWFKAMKSIAKFIAK(Lauroyl)EKLKEHL-OH) | Toxic | Active | Active | 4 - 15 | 2000 | 4600 | 34.6
6 | CCCCCCCCCCCC(=O)NCCCC[C@H](NC(=O)[C@H](CCC(=O)O)NC(=O)[C@H](CCCCN)NC(=O)[C@H](C)NC(=O)[C@@H](NC(=O)[C@H](Cc1ccccc1)NC(=O)[C@H](CCCCN)NC(=O)[C@H](C)NC(=O)[C@@H](NC(=O)[C@H](CO)NC(=O)[C@H](CCCCN)NC(=O)[C@H](CCSC)NC(=O)[C@H](C)NC(=O)[C@H](CCCCN)NC(=O)[C@H](Cc1ccccc1)NC(=O)[C@H](Cc1c[nH]c2ccccc12)NC(=O)CNC(=O)[C@@H](N)CCCCN)[C@@H](C)CC)[C@@H](C)CC)C(=O)N[C@@H](CC(C)C)C(=O)N[C@@H](CCCCN)C(=O)N[C@@H](CCC(=O)O)C(=O)N[C@@H](Cc1cnc[nH]1)C(=O)N[C@@H](CC(C)C)C(=O)O (H-KGWFKAMKSIAKFIAKEK(Lauroyl)LKEHL-OH) | Toxic | Active | Active | 4 - 15 | 2000 | 5100 | 40.2
7 | CCCCCCCCCCCC(=O)NCCCC[C@H](NC(=O)[C@H](CC(C)C)NC(=O)[C@H](CCCCN)NC(=O)[C@H](CCC(=O)O)NC(=O)[C@H](CCCCN)NC(=O)[C@H](C)NC(=O)[C@@H](NC(=O)[C@H](Cc1ccccc1)NC(=O)[C@H](CCCCN)NC(=O)[C@H](C)NC(=O)[C@@H](NC(=O)[C@H](CO)NC(=O)[C@H](CCCCN)NC(=O)[C@H](CCSC)NC(=O)[C@H](C)NC(=O)[C@H](CCCCN)NC(=O)[C@H](Cc1ccccc1)NC(=O)[C@H](Cc1c[nH]c2ccccc12)NC(=O)CNC(=O)[C@@H](N)CCCCN)[C@@H](C)CC)[C@@H](C)CC)C(=O)N[C@@H](CCC(=O)O)C(=O)N[C@@H](Cc1cnc[nH]1)C(=O)N[C@@H](CC(C)C)C(=O)O (H-KGWFKAMKSIAKFIAKEKLK(Lauroyl)EHL-OH) | Toxic | Active | Active | 4 - 15 | 2000 | 5000 | 36.6
